Data set [1] has as its system recombinant NL4-3 virus (nef section replaced with Renilla luciferase gene) in MT-2 cells. Put plainly: HIV cell culture assay (antiviral activity, luciferase readout). The class given is cell-based. As to conditions: Renilla, NL43, MT-2 cells infected for 4-5 days with recombinant NL4-3 Renilla luciferase virus, serial dilutions of compound. An outline of the steps:
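Test compound in serial dilution was present while MT-2 cells were infected for 4–5 days with recombinant NL4-3 virus made in 293T cells. Antiviral activity was quantified as Renilla luciferase activity, read with a live-cell substrate. EC50 came from the median-effect equation.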

A short description of data set [2]: Compound cytotoxicity, XTT-based colorimetric assay. Particulars: human, uninfected MT2 cells, day 4, XTT. In kind it is cell-based. An outline of the steps:
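Run under the antiviral-assay protocol but without virus. Viability was read on day 4 and CC50 values were derived from the readout.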

Some results are limits rather than exact numbers.

In the case of `Cn1nc(NS(C)(=O)=O)c2c(Cl)ccc(-n3c([C@H](Cc4cc(F)cc(F)c4)NC(=O)Cn4nc(C(F)F)c5c4C(F)(F)[C@@H]4C[C@H]54)nc4cc(-c5ccc(C(=O)N6CCCCC6)cc5)ccc4c3=O)c21` (atropisomer, axis not shown; (aR)) [Example 34, N-((S)-1-(3-(4-chloro-1-methyl-3-(methylsulfonamido)-1H-indazol-7-yl)-4-oxo-7-(4-(piperidine-1-carbonyl)phenyl)-3,4-dihydroquinazolin-2-yl)-2-(3,5-difluorophenyl)ethyl)-2-((3bS,4aR)-3-(difluoromethyl)-5,5-difluoro-3b,4,4a,5-tetrahydro-1H-cyclopropa[3,4]cyclopenta[1,2-c]pyrazol-1-yl)acetamide], the EC50 in data set [1] came out at 0.46 nM. This compound also came in with a CC50 at 4 day in data set [2] of over 1000 nM.
On the same counts, the results for `Cc1n[nH]c(C)c1-c1ccc2c(=O)n(-c3ccc(Cl)c4c(NS(C)(=O)=O)nn(C)c34)c([C@H](Cc3cc(F)cc(F)c3)NC(=O)Cn3nc(C(F)F)c4c3C(F)(F)[C@@H]3C[C@H]43)nc2c1` (atropisomer, axis not shown; (aR)) [Example 89, N-((S)-1-(3-(4-chloro-1-methyl-3-(methylsulfonamido)-1H-indazol-7-yl)-7-(3,5-dimethyl-1H-pyrazol-4-yl)-4-oxo-3,4-dihydroquinazolin-2-yl)-2-(3,5-difluorophenyl)ethyl)-2-((3bS,4aR)-3-(difluoromethyl)-5,5-difluoro-3b,4,4a,5-tetrahydro-1H-cyclopropa[3,4]cyclopenta[1,2-c]pyrazol-1-yl)acetamide] are 3.4 nM and over 1000 nM.
Regarding `CC(C)S(=O)(=O)c1ccccc1-c1ccc2c(=O)n(-c3ccc(Cl)c4c(NS(C)(=O)=O)nn(C)c34)c([C@H](Cc3cc(F)cc(F)c3)NC(=O)Cn3nc(C(F)F)c4c3C(F)(F)[C@@H]3C[C@H]43)nc2c1` (atropisomer, axis not shown; (aR)) [Example 120, N-((S)-1-(3-(4-chloro-1-methyl-3-(methylsulfonamido)-1H-indazol-7-yl)-7-(2-(isopropylsulfonyl)phenyl)-4-oxo-3,4-dihydroquinazolin-2-yl)-2-(3,5-difluorophenyl)ethyl)-2-((3bS,4aR)-3-(difluoromethyl)-5,5-difluoro-3b,4,4a,5-tetrahydro-1H-cyclopropa[3,4]cyclopenta[1,2-c]pyrazol-1-yl)acetamide], the EC50 in data set [1] turned out to be 0.13 nM. The same compound gave a CC50 at 4 day in data set [2] of over 500 nM.
For `Cn1nc(NS(C)(=O)=O)c2c(Cl)ccc(-n3c([C@H](Cc4cc(F)cc(F)c4)NC(=O)Cn4nc(C(F)F)c5c4C(F)(F)[C@@H]4C[C@H]54)nc4cc(-c5c(F)cccc5F)ccc4c3=O)c21` [Example 185, N-((S)-1-(3-(4-chloro-1-methyl-3-(methylsulfonamido)-1H-indazol-7-yl)-7-(2,6-difluorophenyl)-4-oxo-3,4-dihydroquinazolin-2-yl)-2-(3,5-difluorophenyl)ethyl)-2-((3bS,4aR)-3-(difluoromethyl)-5,5-difluoro-3b,4,4a,5-tetrahydro-1H-cyclopropa[3,4]cyclopenta[1,2-c]pyrazol-1-yl)acetamide], in data set [1], the EC50 was 0.62 nM. In data set [2], this compound returned a CC50 at 4 day of over 1000 nM.
On the same counts, the results for `Cn1nc(NS(C)(=O)=O)c2c(Cl)ccc(-n3c([C@H](Cc4cc(F)cc(F)c4)NC(=O)Cn4nc(C(F)F)c5c4C(F)(F)[C@@H]4C[C@H]54)nc4cc(-c5ccc(Cl)c(F)c5)ccc4c3=O)c21` [Example 194, N-((S)-1-(3-(4-chloro-1-methyl-3-(methylsulfonamido)-1H-indazol-7-yl)-7-(4-chloro-3-fluorophenyl)-4-oxo-3,4-dihydroquinazolin-2-yl)-2-(3,5-difluorophenyl)ethyl)-2-((3bS,4aR)-3-(difluoromethyl)-5,5-difluoro-3b,4,4a,5-tetrahydro-1H-cyclopropa[3,4]cyclopenta[1,2-c]pyrazol-1-yl)acetamide] are 7.7 nM and over 1000 nM.
`Cn1nc(NS(C)(=O)=O)c2c(Cl)ccc(-n3c([C@H](Cc4cc(F)cc(F)c4)NC(=O)Cn4nc(C(F)F)c5c4C(F)(F)[C@@H]4C[C@H]54)nc4cc(-c5ccc(C(=O)O)c(Cl)c5)ccc4c3=O)c21` (atropisomer, axis not shown; (aR)) [Example 75, 2-chloro-4-(3-(4-chloro-1-methyl-3-(methylsulfonamido)-1H-indazol-7-yl)-2-((S)-1-(2-((3bS,4aR)-3-(difluoromethyl)-5,5-difluoro-3b,4,4a,5-tetrahydro-1H-cyclopropa[3,4]cyclopenta[1,2-c]pyrazol-1-yl)acetamido)-2-(3,5-difluorophenyl)ethyl)-4-oxo-3,4-dihydroquinazolin-7-yl)benzoic acid]: in data set [1], the EC50 was found to be 29 nM. Further, in data set [2], the CC50 at 4 day is over 1000 nM.
Take `O=C(Cn1nc(C(F)F)c2c1C(F)(F)[C@@H]1C[C@H]21)N[C@@H](Cc1cc(F)cc(F)c1)c1nc2cc(-c3cccnc3)ccc2c(=O)n1-c1ccc(S(=O)(=O)N2CCOCC2)cc1` [Example 24, 2-((3bS,4aR)-3-(difluoromethyl)-5,5-difluoro-3b,4,4a,5-tetrahydro-1H-cyclopropa[3,4]cyclopenta[1,2-c]pyrazol-1-yl)-N-((S)-2-(3,5-difluorophenyl)-1-(3-(4-(morpholinosulfonyl)phenyl)-4-oxo-7-(pyridin-3-yl)-3,4-dihydroquinazolin-2-yl)ethyl)acetamide]: the EC50 in data set [1] was determined as 4.3 nM. The CC50 at 4 day in data set [2] was over 1000 nM.
On the same counts, the results for `Cc1ccccc1-c1ccc2c(=O)n(-c3ccc(Cl)c4c(NS(C)(=O)=O)nn(C)c34)c([C@H](Cc3cc(F)cc(F)c3)NC(=O)Cn3nc(C(F)F)c4c3C(F)(F)[C@@H]3C[C@H]43)nc2c1` (atropisomer, axis not shown; (aR)) [Example 88, N-((S)-1-(3-(4-chloro-1-methyl-3-(methylsulfonamido)-1H-indazol-7-yl)-4-oxo-7-(o-tolyl)-3,4-dihydroquinazolin-2-yl)-2-(3,5-difluorophenyl)ethyl)-2-((3bS,4aR)-3-(difluoromethyl)-5,5-difluoro-3b,4,4a,5-tetrahydro-1H-cyclopropa[3,4]cyclopenta[1,2-c]pyrazol-1-yl)acetamide] are 0.73 nM and over 1000 nM.
For `Cn1nc(NS(C)(=O)=O)c2c(Cl)ccc(-n3c([C@H](Cc4cc(F)cc(F)c4)NC(=O)Cn4nc(C(F)F)c5c4C(F)(F)[C@@H]4C[C@H]54)nc4cc(-c5cc(F)ccc5CO)ccc4c3=O)c21` [Example 180, N-((S)-1-(3-(4-chloro-1-methyl-3-(methylsulfonamido)-1H-indazol-7-yl)-7-(5-fluoro-2-(hydroxymethyl)phenyl)-4-oxo-3,4-dihydroquinazolin-2-yl)-2-(3,5-difluorophenyl)ethyl)-2-((3bS,4aR)-3-(difluoromethyl)-5,5-difluoro-3b,4,4a,5-tetrahydro-1H-cyclopropa[3,4]cyclopenta[1,2-c]pyrazol-1-yl)acetamide], the EC50 in data set [1] came to 0.2 nM. In data set [2], this compound gave a CC50 at 4 day of over 500 nM.
Take `Cc1ncc(-c2ccc3c(=O)n(-c4ccc(Cl)c5c(NS(C)(=O)=O)nn(CC(F)F)c45)c([C@H](Cc4cc(F)cc(F)c4)NC(=O)Cn4nc(C(F)F)c5c4C(F)(F)[C@@H]4C[C@H]54)nc3c2)cn1` [Example 174, N-((S)-1-(3-(4-chloro-1-(2,2-difluoroethyl)-3-(methylsulfonamido)-1H-indazol-7-yl)-7-(2-methylpyrimidin-5-yl)-4-oxo-3,4-dihydroquinazolin-2-yl)-2-(3,5-difluorophenyl)ethyl)-2-((3bS,4aR)-3-(difluoromethyl)-5,5-difluoro-3b,4,4a,5-tetrahydro-1H-cyclopropa[3,4]cyclopenta[1,2-c]pyrazol-1-yl)acetamide]: the EC50 in data set [1] amounted to 0.033 nM. For the same compound, in data set [2], the CC50 at 4 day was over 500 nM.
Take `Cc1cc(Cl)ccc1-c1ccc2c(=O)n(-c3ccc(S(=O)(=O)N4CCOCC4)cc3)c([C@H](Cc3cc(F)cc(F)c3)NC(=O)Cn3ccc(C4CC4)n3)nc2c1` [Example 50, (S)-N-(1-(7-(4-chloro-2-methylphenyl)-3-(4-(morpholinosulfonyl)phenyl)-4-oxo-3,4-dihydroquinazolin-2-yl)-2-(3,5-difluorophenyl)ethyl)-2-(3-cyclopropyl-1H-pyrazol-1-yl)acetamide]: the EC50 in data set [1] came out at 70 nM. The same compound returned a CC50 at 4 day in data set [2] of over 1000 nM.
As for `Cn1nc(NS(C)(=O)=O)c2c(Cl)ccc(-n3c([C@H](Cc4cc(F)cc(F)c4)NC(=O)Cn4nc(C(F)F)c5c4C(F)(F)[C@@H]4C[C@H]54)nc4cc(-c5ccc(F)c(C#N)c5F)ccc4c3=O)c21` [Example 170, N-((S)-1-(3-(4-chloro-1-methyl-3-(methylsulfonamido)-1H-indazol-7-yl)-7-(3-cyano-2,4-difluorophenyl)-4-oxo-3,4-dihydroquinazolin-2-yl)-2-(3,5-difluorophenyl)ethyl)-2-((3bS,4aR)-3-(difluoromethyl)-5,5-difluoro-3b,4,4a,5-tetrahydro-1H-cyclopropa[3,4]cyclopenta[1,2-c]pyrazol-1-yl)acetamide], the EC50 in data set [1] stood at 0.58 nM. Also, the CC50 at 4 day in data set [2] was over 500 nM.
On the same counts, the results for `CS(=O)(=O)Nc1nn(CC(F)F)c2c(-n3c([C@H](Cc4cc(F)cc(F)c4)NC(=O)Cn4nc(C(F)F)c5c4C(F)(F)[C@@H]4C[C@H]54)nc4cc(-c5ccccc5F)ccc4c3=O)ccc(Cl)c12` [Example 183, N-((S)-1-(3-(4-chloro-1-(2,2-difluoroethyl)-3-(methylsulfonamido)-1H-indazol-7-yl)-7-(2-fluorophenyl)-4-oxo-3,4-dihydroquinazolin-2-yl)-2-(3,5-difluorophenyl)ethyl)-2-((3bS,4aR)-3-(difluoromethyl)-5,5-difluoro-3b,4,4a,5-tetrahydro-1H-cyclopropa[3,4]cyclopenta[1,2-c]pyrazol-1-yl)acetamide] are 0.39 nM and over 500 nM.

What is called EC50 is the concentration needed to bring the measured effect to its halfway point. The CC50 is the concentration giving 50% cytotoxicity. High values mean better tolerance by the cells, low ones harm at low concentration.

Values taken from patent US11505543B2, “4-oxo-3,4-dihydroquinazoline compounds as inhibitors of human immunodeficiency virus replication” (VIIV HEALTHCARE UK (NO.5) LIMITED, priority 2018, dated 2022).
